Data: patent US7759078B2, “Diagnosis and treatment of cancer” (priority 2003, dated 2010)

Tests used:
[1] = tested on: voltage gated Na+ channel in MAT-LyLu rat prostatic cancer cell line; assay: current recordings of VGSC functional expression in MAT-LyLu cells after 24 h incubation; type: cell-based
Protocol: FIG. 9. (A) Current recordings from the MAT-LyLu rat prostatic cancer cell line elicited by depolarising the membrane from a holding potential of −100 mV to 0 mV following 24 h incubation in 0% FBS, 100 ng/ml EGF and 1 μM AG1478. […] (B) Histograms showing mean peak Na^+ current density ± standard error following 24 h incubation in 0% FBS, 100 ng/ml EGF, 1 μM AG1478 and EGF receptor antibody (1 μg/ml). Statistical significance is indicated as **=p<0.01 and ***=p<0.001, respectively.
Epidermal growth factor (EGF) upregulates VGSC functional expression. […] This effect is blocked by co-application of EGF receptor kinase inhibitor (AG1478; Calbiochem, San Diego, Calif., USA). Application of EGF receptor antibody (Oncogene, Cambridge, Mass., USA) also reduces the basal VGSC current implying that the phenomenon occurs endogenously.

MAT-LyLu cells = conditions: cited from earlier work
MAT-LyLu and PC-3 cells = conditions: cited from earlier work
[2] = tested on: PN1 expression in PC12 cells; conditions: cited from earlier work

Question: With `COc1cc2ncnc(Nc3cccc(Cl)c3)c2cc1OC` [AG1478] as the molecule, how does the “effect on EGF potentiation of functional VGSC expression” value ([1]; co-application with EGF, 1 μM AG1478, 24 h) read?
Answer: blocked

Question: Which “effect on cell morphology” value (MAT-LyLu cells) does the source give for `NC1=N[C@H](O)[C@H]2[C@H]3O[C@]4(O)O[C@@H]([C@@H](O)[C@@]2(N1)[C@@H]4O)[C@]3(O)CO` [TTX, tetrodotoxin] here?
Answer: retract their processes and become compact

Question: What about the “cells' invasion in vitro” value (MAT-LyLu and PC-3 cells) of the same molecule?
Answer: significantly reduced

Question: What about the “reduction of the cells' invasive potential” value (MAT-LyLu and PC-3 cells) of the same molecule?
Answer: ~30%

Question: Which “VGSC functional expression (peak Na+ current density)” value ([1]; 24 h incubation, 100 ng/ml EGF) does the source give for Epidermal growth factor [EGF] here?
Answer: upregulates

Question: Which PN1 expression [2] does the source give for nerve growth factor [NGF] here?
Answer: upregulates
